Consider 98 compounds from the Kinase Knowledgebase extract (Sharma et al. 2016).

The target in this assay is CDK2 (UniProt P24941). The assay is described as follows: Enzyme Assay. The settings on record: concentration not given here.

What is called inhibition is the relative decrease from the control value, in per cent. Higher therefore signals a response far below the control.

`Cc1c(O)cccc1C(=O)Nc1sc(-c2ccccc2)cc1C(N)=O`: the inhibition was 100%.

The compound `NC(=O)c1cc(-c2ccccc2)sc1NC(=O)C(F)c1ccccc1` (stereo not drawn) gave an inhibition of 100%.

`Cc1sc(NC(=O)Cn2cc(C)c(=O)[nH]c2=O)c(C(N)=O)c1C`: the inhibition turned out to be 100%.

As for `NC(=O)c1c(NC(=O)C2(C(N)=O)CC2)sc2c1CCCC2`, the inhibition was 100%.

Compound `COc1ccc(C(=O)Nc2sc(Cc3ccccc3)cc2C(N)=O)c(O)c1` came in with an inhibition of 100%.

The compound `Cc1ccc(CC(=O)Nc2sc(C(C)C)cc2C(N)=O)cc1` had an inhibition of 100%.

With `CC(=O)NC(=O)C(C)Nc1sc(C(C)C)cc1C(N)=O` (stereo not drawn), the inhibition is 100%.

`NC(=O)c1c(NC(=O)c2c[nH]cn2)sc2c1CCCC2` had an inhibition of 100%.

In the case of `CN1CCc2c(sc(NC(=O)Cc3ccccc3I)c2C(N)=O)C1`, the inhibition worked out at 100%.

Turning to `COc1cccc(/C=C\C(=O)Nc2scc(C)c2C(N)=O)c1OC`, the inhibition came to 100%.

Turning to `COc1cccc2cc(C(=O)Nc3sc(C)c(C)c3C(N)=O)oc12`, the inhibition amounted to 100%.

`NC(=O)c1cc(Cc2ccccc2)sc1NC(=O)/C(F)=C/c1ccccc1` returned an inhibition of 100%.

In turn, `COc1cc(C(=O)Nc2sc(Cc3ccccc3)cc2C(N)=O)ccc1C` registered an inhibition of 100%.

The compound `COc1ccc(C(=O)Nc2sc(Cc3ccccc3)cc2C(N)=O)cc1O` displayed an inhibition of 100%.

`COc1cccc(C(=O)Nc2sc(Cc3ccccc3)cc2C(N)=O)c1O` gave an inhibition of 100%.

Compound `CC(c1ccccc1)c1cc(C(N)=O)c(NC(=O)c2nccc3ccccc23)s1` (stereo not drawn) came in with an inhibition of 100%.

As for `NC(=O)c1cc(Cc2ccccc2)sc1NC(=O)/C=C/c1ccccc1O`, the inhibition amounted to 100%.

With `Cc1sc(NC(=O)c2cc3cc(O)ccc3[nH]2)c(C(N)=O)c1C`, the inhibition turned out to be 100%.

In turn, `NC(=O)c1cc(-c2ccccc2)sc1NC(=O)CC1CCCCCC1` returned an inhibition of 100%.

`CN(C)c1ccc(C(=O)Nc2sc(Cc3ccccc3)cc2C(N)=O)cc1` had an inhibition of 100%.

The compound `Cc1cc(C(=O)Nc2sc(Cc3ccccc3)cc2C(N)=O)cc(C)c1O` returned an inhibition of 100%.

In the case of `CC(c1ccccc1)c1cc(C(N)=O)c(NC(=O)c2ccc(O)c(Cl)c2)s1` (stereo not drawn), the inhibition was determined as 100%.

In turn, `COc1ccccc1OCC(=O)Nc1sc(C)c(C)c1C(N)=O` displayed an inhibition of 100%.

With `NC(=O)c1ccccc1C(=O)Nc1sc(Cc2ccccc2)cc1C(N)=O`, the inhibition worked out at 100%.

`CC(C)c1cc(C(N)=O)c(NC(=O)CCC2CCCC2)s1` showed an inhibition of 100%.

Regarding `NC(=O)c1cc(Cc2ccccc2)sc1NC(=O)COc1ccc(O)cc1`, the inhibition was found to be 100%.

As for `COc1cc(OC)c(C(=O)Nc2sc3c(c2C(N)=O)CCN(C)C3)c(OC)c1`, the inhibition was found to be 100%.

The compound `NC(=O)c1cc(-c2ccccc2)sc1NC(=O)c1ccc(Cl)cc1` registered an inhibition of 100%.

With `C=CCN(C(C)=O)C(=O)CNc1sc(-c2ccccc2)cc1C(N)=O`, the inhibition was 100%.

The compound `COc1ccc(/C=C\C(=O)Nc2scc(C)c2C(N)=O)c(OC)c1` showed an inhibition of 100%.

With `COc1ccc2cc(C(=O)Nc3scc(C)c3C(N)=O)[nH]c2c1`, the inhibition was 100%.

`CC(=O)NC(=O)C1CCCN1c1sc(-c2ccccc2)cc1C(N)=O` (stereo not drawn) gave an inhibition of 100%.

`NC(=O)c1cc(-c2ccccc2)sc1NC(=O)Cc1cccc(O)c1` returned an inhibition of 100%.

For `CC(=O)Nc1ccc(C(=O)Nc2sc(C(C)c3ccccc3)cc2C(N)=O)cc1` (stereo not drawn), the inhibition was found to be 100%.

As to `CC(=O)N1CCC(O)C1C(=O)Nc1sc(C(C)c2ccccc2)cc1C(N)=O` (stereo not drawn), the inhibition is 100%.

On to `NC(=O)c1c(NC(=O)c2cccc(O)c2)sc2c1CCCC2`, for which the inhibition stood at 100%.

Take `NC(=O)c1cc(Cc2ccccc2)sc1NC(=O)c1c[nH]c2ccccc12`: the inhibition is 100%.

`Cc1ccc(C(=O)Nc2sc(C(C)C)cc2C(N)=O)cc1C`: the inhibition was 100%.

Take `Cc1sc(NC(=O)/C=C\c2ccc3c(c2)OCO3)c(C(N)=O)c1C`: the inhibition turned out to be 100%.

`Cc1ccccc1C(=O)Nc1sc2c(c1C(N)=O)CCCC2` registered an inhibition of 100%.

As for `Cc1csc(NC(=O)c2ccc(S(C)(=O)=O)cc2)c1C(N)=O`, the inhibition stood at 100%.

`CC(C)c1cc(C(N)=O)c(NC(=O)c2ccc(F)cc2)s1` yielded an inhibition of 100%.

Turning to `Cc1csc(NC(=O)CCc2nc3ccccc3[nH]2)c1C(N)=O`, the inhibition worked out at 100%.

As to `Cc1sc(NC(=O)c2c(Cl)cccc2Cl)c(C(N)=O)c1C`, the inhibition amounted to 100%.

The compound `Cc1ccc(C(=O)Nc2sc(-c3ccccc3)cc2C(N)=O)c(O)c1` returned an inhibition of 100%.

In turn, `NC(=O)c1cc(-c2ccccc2)sc1NC(=O)Cc1ccccc1O` yielded an inhibition of 100%.

Take `CN1CCc2c(sc(NC(=O)Cc3ccc(S(C)(=O)=O)cc3)c2C(N)=O)C1`: the inhibition was 100%.

`CC(C)c1cc(C(N)=O)c(NC(=O)c2ccc(C#N)cc2)s1` had an inhibition of 100%.

Regarding `CC(C)=NOC(C)C(=O)Nc1sc(C(C)C)cc1C(N)=O` (stereo not drawn), the inhibition was 100%.

`CC(c1ccccc1)c1cc(C(N)=O)c(NC(=O)CC2CCc3ccccc32)s1` (stereo not drawn): the inhibition was determined as 100%.

For the compound `CN1CCc2c(sc(NC(=O)CCCc3c[nH]c4ccccc34)c2C(N)=O)C1`, the inhibition worked out at 100%.

`Cc1csc(NC(=O)c2nn(-c3ccccc3)nc2C)c1C(N)=O` showed an inhibition of 100%.

Regarding `NC(=O)c1c(NC(=O)c2c[nH]nc2N)sc2c1CCCC2`, the inhibition turned out to be 100%.

Take `Cc1cc(C)cc(CC(=O)Nc2sc(Cc3ccccc3)cc2C(N)=O)c1`: the inhibition was 100%.

As to `COc1cccc(O)c1C(=O)Nc1sc(Cc2ccccc2)cc1C(N)=O`, the inhibition is 100%.

The compound `CN1CCc2c(sc(NC(=O)/C=C\C(=O)Nc3ccc(Cl)cc3)c2C(N)=O)C1` yielded an inhibition of 100%.

The compound `NC(=O)c1cc(-c2ccccc2)sc1NC(=O)c1ccc(Cl)nc1` came in with an inhibition of 100%.

In the case of `NC(=O)c1c(NC(=O)c2ccc[nH]2)sc2c1CCCC2`, the inhibition was 100%.

The compound `CCC(N)C(=O)N(C(N)=O)c1sc(C(C)C)cc1C(N)=O` (stereo not drawn) registered an inhibition of 100%.

For the compound `CC(C)c1cc(C(N)=O)c(NC(=O)CCC(=O)N(C)C)s1`, the inhibition turned out to be 100%.

For the compound `CC1NC(=O)NC1CCCCCC(=O)Nc1sc2c(c1C(N)=O)CCN(C)C2` (stereo not drawn), the inhibition was found to be 100%.

On to `NC(=O)c1cc(-c2ccccc2)sc1NC(=O)CCc1cccs1`, for which the inhibition worked out at 100%.

For `CC(c1ccccc1)c1cc(C(N)=O)c(NC(=O)c2cnc3ccccc3c2)s1` (stereo not drawn), the inhibition stood at 100%.

Consider `COc1ccc(C(=O)Nc2sc(C)c(C)c2C(N)=O)cc1Cl`, for which the inhibition is 100%.

On to `CC(c1ccccc1)c1cc(C(N)=O)c(NC(=O)c2cc3ccccc3n2C)s1` (stereo not drawn), for which the inhibition was 100%.

In the case of `CN1CCc2c(sc(NC(=O)c3ccc(-c4ccc(Cl)cc4)o3)c2C(N)=O)C1`, the inhibition came to 100%.

As to `Cc1csc(NC(=O)c2cnn(-c3ccccc3)c2C)c1C(N)=O`, the inhibition was found to be 100%.

In the case of `CC(=O)Nc1ccc(Br)cc1C(=O)Nc1sc2c(c1C(N)=O)CCN(C)C2`, the inhibition was found to be 100%.

Regarding `Cc1csc(NC(=O)c2ccc(S(N)(=O)=O)cc2)c1C(N)=O`, the inhibition came out at 100%.

Turning to `CC(C)c1cc(C(N)=O)c(NC(=O)c2ccccc2F)s1`, the inhibition worked out at 100%.

The compound `NC(=O)c1cc(-c2ccccc2)sc1NC(=O)c1cccc(Cl)c1` gave an inhibition of 100%.

On to `NC(=O)c1cc(-c2ccccc2)sc1NC(=O)c1cccnc1Cl`, for which the inhibition turned out to be 100%.

For `Cc1ccc(S(=O)(=O)NCC(=O)Nc2sc3c(c2C(N)=O)CCN(C)C3)cc1`, the inhibition turned out to be 100%.

On to `CC(C)c1cc(C(N)=O)c(NC(=O)Cc2ccsc2)s1`, for which the inhibition came to 100%.

As to `Cc1oncc1C(=O)Nc1sc2c(c1C(N)=O)CCCC2`, the inhibition came to 100%.

On to `Cc1csc(NC(=O)CS(=O)(=O)c2ccccc2)c1C(N)=O`, for which the inhibition turned out to be 100%.

Compound `CC(c1ccccc1)c1cc(C(N)=O)c(NC(=O)c2cc(Cl)ccc2O)s1` (stereo not drawn) returned an inhibition of 100%.

Turning to `CCC(NC(=O)CCl)C(=O)Nc1sc(C)c(C)c1C(N)=O` (stereo not drawn), the inhibition was 100%.

As to `CC(c1ccccc1)c1cc(C(N)=O)c(NC(=O)C2=CN(C)CCC2)s1` (stereo not drawn), the inhibition was 100%.

`CC(c1ccccc1)c1cc(C(N)=O)c(NC(=O)c2cccc(Cl)c2O)s1` (stereo not drawn) registered an inhibition of 100%.

`Cc1sc(NC(=O)c2ccc(Cl)cc2Cl)c(C(N)=O)c1C` yielded an inhibition of 100%.

`COc1ccc(C)c(C(=O)Nc2sc(Cc3ccccc3)cc2C(N)=O)c1`: the inhibition is 100%.

As to `CN1CCc2c(sc(NC(=O)CCS(=O)(=O)c3ccccc3)c2C(N)=O)C1`, the inhibition turned out to be 100%.

`NC(=O)c1cc(Cc2ccccc2)sc1NC(=O)c1n[nH]c2ccccc12`: the inhibition is 100%.

As to `CC(=O)NC(=O)C(CC(C)C)Nc1sc(C(C)c2ccccc2)cc1C(N)=O` (stereo not drawn), the inhibition came out at 100%.

`CC(c1ccccc1)c1cc(C(N)=O)c(NC(=O)c2cnc3ccccc3n2)s1` (stereo not drawn) showed an inhibition of 100%.

`CC(c1ccccc1)c1cc(C(N)=O)c(NC(=O)C2CCc3ccccc3C2)s1` (stereo not drawn) returned an inhibition of 100%.

Take `Cc1sc(NC(=O)c2cc(Cl)ccc2Cl)c(C(N)=O)c1C`: the inhibition worked out at 100%.

`Cc1sc(NC(=O)c2coc3ccccc3c2=O)c(C(N)=O)c1C`: the inhibition was determined as 100%.

In the case of `CC(c1ccccc1)c1cc(C(N)=O)c(NC(=O)c2cccc3cccnc23)s1` (stereo not drawn), the inhibition came to 100%.

For the compound `COc1cc(OC)c(C(=O)Nc2scc(C)c2C(N)=O)cc1OC`, the inhibition came out at 100%.

Turning to `CCCN(CCC)C(=O)[C@H](C)Nc1sc(C(C)c2ccccc2)cc1C(N)=O` (stereo partly drawn), the inhibition amounted to 100%.

The compound `COc1ccc(OC)c(C(=O)Nc2sc(C)c(C)c2C(N)=O)c1` gave an inhibition of 100%.

`CC(C)c1cc(C(N)=O)c(NC(=O)C2CCCCCC2)s1` displayed an inhibition of 100%.

Regarding `CC(=O)Nc1ccccc1C(=O)Nc1sc(C(C)c2ccccc2)cc1C(N)=O` (stereo not drawn), the inhibition is 100%.

The compound `CCCCC(C)(C)C(=O)Nc1sc(C(C)C)cc1C(N)=O` showed an inhibition of 100%.

`Cc1csc(NC(=O)Cc2csc3ccccc23)c1C(N)=O`: the inhibition stood at 100%.

`NC(=O)c1cc(-c2ccccc2)sc1NC(=O)Cc1ccccc1F` displayed an inhibition of 100%.
